The results in this text go back to publication PMC6173696, “Structural properties of a haemophore facilitate targeted elimination of the pathogen Porphyromonas gingivalis” (Nature Communications, 2018).

Data set [1] concerns P. gingivalis wild type W83. Kind of data set: Time-kill experiment with high and low densities of bacteria, iron limited. In kind it is cell-based, Porphyromonas gingivalis. The method, then:
Supplementary Figure 22. Time-kill experiment with high and low densities of P. gingivalis wild type W83 in the presence of P8 antibiotic under iron limited condition. (A) Representative planktonic growth curves show control P. gingivalis culture without P8 antibiotic (filled dark blue circle), P8 at 0.5 µM (light blue circle) and 2.5 µM (dash-filled light blue circle) added at the commencement of growth. (B) Representative planktonic growth curves shown control P. gingivalis culture without P8 antibiotic (filled dark blue circle), P8 at 0.5 µM (dash-filled light blue circle) and 2.5 µM (filled light blue circle) added to the exponentially growing cultures.
(1 picture or pasted object on this page, not shown here) […]
1) Fig. 1A still needs confirmation with the inclusion of two additional panels.
(a) Effect of 0.5 µM P8 added to the culture prior to the commencement of growth. (b) Effect of adding 0.5 µM P8 to actively growing cultures of P. gingivalis W83
Response: The growth curve studies, including addition of 0.5µM P8 prior to the commencement of […]
the commencement of growth (low bacteria density).
2.5 µM P8 under the same condition. When added to the actively growing culture (high bacteria density) of P. gingivalis W83, both 0.5 µM and 2.5 µM P8 retard growth with the 2.5 µM P8 treatment achieving a relative lower density at stationary phase. The MIC of P8 is correlated to the initial bacteria densities in the inoculum. Udekwu et al. have reported that higher concentration of antibiotics is required to achieve the MIC when treating higher densities of bacteria albeit with variation according to class of drug […]
As P8 is introduced in the later section of the main text, we have presented the results as Supplementary […]
is not uniform in panel “i”.
3) HSQC spectra for the interaction of HusA with P8 should be provided (analogous to Supplementary
Fig. 18A, where the authors have done a nice job of showing the data down to noise level). Specifically, HSQC superpositions of DPIX and P8 would make for direct comparison. Similarly, the authors would also need to show an HSQC comparison of HusA alone and bound to P8. Indeed, Supplementary Fig. 21 is helpful in analyzing the exchange regimes of a couple of residues, but it doesn't give a global picture of […]

For data set [2], the system named is P. gingivalis wild-type W83. As to the kind of experiment: Checkerboard / broth micro-dilution assay (MIC, MBC), wild-type W83. In kind it is cell-based, Porphyromonas gingivalis. The text has this:
Fig. 5 A prototype DPIX-conjugated antibiotic binds HusA and inhibits P. gingivalis. a The chemical structure of the deuteroporphyrin-lysine-metronidazole adduct, P8. b NMR signal intensity changes (black) and ^1H^N CSPs (red/green) for HusA upon addition of P8 (measured from ^15N-HSQC spectra shown in Supplementary Figure 21). c In silico docking of P8 to the energy minimized structure of HusA (conformer set 1), with residues experiencing NMR signal loss (orange) or CSPs (red/green) mapped to the structure (colouring as described in Fig. 2d). d Scaled and corrected fluorescence at 335 nm during titration of 1 μM of HusA with increasing concentrations of P8, haemin or DPIX. e Comparison of P8 inhibitory effect towards P. gingivalis wild-type W83 and husA mutants using checkerboard analysis. Serial dilutions of antibiotics (horizontal axis) were applied to a 96-well plate with different P. gingivalis strains (vertical axis). Serial dilutions of DPIX were also supplemented into wild-type W83 group to evaluate the competitive effect against P8. Absorption at OD600 of each well was recorded after 24 h of incubation. The OD600 of each strain grown in the absence of antibiotics was defined as 100% growth, which was applied to normalise the reading collected from other wells. The normalised percentage of each well was plotted in the checkerboard. Metronidazole alone and in combination with PPIX or DPIX was applied as control. f Intracellular killing assay of P8 antibiotics. Gingival H413 epithelial cells were infected by P. gingivalis W83 and then treated with P8 at various concentrations. Recovered bacteria were determined by CFU count. Metronidazole and DMSO were used as control. Three independent experiments with triplicate assays were conducted. […]
(In general: Dilution methods test growth across graded concentrations, often in twofold steps.)

The subject of data set [3] is H413 gingival epithelial cells. In kind it is cell-based, Human. The conditions noted are these: concentrations above 0.5 µM; 1 h or 2 h. The procedure:
As P8 could penetrate epithelial cells, the cell membrane integrity was tested using lactate dehydrogenase (LDH) assay. LDH is readily released following cellular membrane damage. As per manufacturer’s instructions (Thermo Fisher Scientific, Australia), H413 cells were treated with P8 at various concentrations and incubated for 1 h and 2 h, respectively. The drug solubilisation medium DMSO and metronidazole were used as controls. The positive control provided by the manufacturer was used to determine the maximal LDH release and the ratio of corrected values obtained for the experimental groups relative to maximum LDH release represented cytotoxicity. The fluorescence intensity was recorded on SpetraMax® i3 (Molecular Devices, Australia).
Supplementary Figure 23. (A) UV-vis spectra of 10 µM P8 alone and in the presence of 10 µM HusA. (B) Stability assay of P8 in the presence of gingival epithelial cell lysate. The intensity of P8 fluorescence was applied to monitor the stability of P8 in the presence of cell lysate. (C) Confocal microscope analysis of the progressive uptake of P8 by H413 gingival epithelial cell over a 2 h period.
The fluorescent P8 is shown in red and the nuclei stained by DAPI are shown in blue. Scale bar, 25 µm. (D) Lactate dehydrogenase cytotoxicity assay of H413 gingival epithelial cells treated with P8 at various concentrations for 1 h or 2 h incubation. […]

For the next data set, the system named is HusA. Kind of data set: Acid-alkaline transition of UV-vis spectra, haemin bound to HusA and Y164A/F mutants. In kind it is physicochemical, Porphyromonas gingivalis. The conditions noted are these: haemin bound to HusA and the Y164A/F mutants. The method, then:
Spectra were recorded in 0.1 M NaCl with 0.1 M of the following buffers: citrate, pH 5.0; BisTris-HCl, pH 5.5; BisTris-HCl, pH 5.75: BisTris-HCl, pH 6.0; sodium phosphate, pH 6.5; sodium phosphate, pH 7.0; sodium phosphate, pH 7.5; Tris-HCl, pH 8.0; sodium borate, pH 9.0; sodium borate/NaOH, pH 9.8; sodium carbonate, pH 10.0 (not all titration points were collected for each protein)

Turning to `CC1=Cc2cc3[nH]c(cc4nc(cc5[nH]c(cc1n2)cc5C)C(C)=C4CCC(=O)N[C@@H](CCCCNC(=O)OC(C)(C)C)C(=O)NCCn1c([N+](=O)[O-])cnc1C)c(CCC(=O)O)c3C` [P8], the effect on growth entry in data set [1] (0.5 µM P8 added prior to the commencement of growth (low bacteria density), dipyridyl) was “retards the growth”; in data set [1] (0.5 µM P8 added to the actively growing culture (high bacteria density)), “retard growth”; in data set [1] (2.5 µM P8 added prior to the commencement of growth, dipyridyl) it was “fails to growth”; in data set [1] (2.5 µM P8 added to the actively growing culture, relative lower density at stationary phase) it was “retard growth”. Moreover, in data set [2] (Porphyromonas gingivalis, no growth recovery on eTSB agar plate, read-out: minimal bactericidal concentration), the MBC lay within 10 to 20 µM. For the same compound, in data set [2] (Porphyromonas gingivalis, planktonic W83, 24 h, anaerobic, read-out: minimal inhibitory concentration), the MIC lay within 1.25 to 2.5 µM. Besides, the “killing of extracellular P. gingivalis” value in data set [2] (planktonic W83) is on record as “more effective than metronidazole”. Moreover, the “cell toxicity (LDH release)” value in data set [3] is “does not induce cell toxicity”.
In the case of `C=CC1=C(C)c2cc3[nH]c(cc4nc(cc5[nH]c(cc1n2)c(C)c5CCC(=O)O)C(CCC(=O)O)=C4C)c(C)c3C=C.[Fe+3]` [haemin], the “pKa of acid-alkaline transition” value in the data set with HusA is reported as 6.1–6.5; with HusA (listed as haem) it was 6-6.5.
